This is an account of results in patent US20240307338A1, “USE OF PHARMACEUTICAL COMPOSITION CONTAINING CHLOROGENIC ACID IN PREPARATION OF MEDICAMENT FOR TREATING PATHOLOGIC JAUNDICE” (SICHUAN JIUZHANG BIOLOGICAL SCIENCE AND TECHNOLOGY CO., LTD., priority 2021, published 2024).

What all share (assay type): in vivo, SD rats
Assay [1] deals with rat model of hemolytic jaundice (acetylphenylhydrazine-induced). Description: Activity assay of α-GST, ALT and AST in serum of rats with APH-induced hemolytic jaundice. As for the experimental part: (§1) Clean adult male SD rats, weighing 200 g-250 g. The following experiment was carried out mainly by referring to the method described in CN104739818A. In short, in the example, acetylphenylhydrazine (APH) was used as a modeling drug to construct a rat model of hemolytic jaundice, which was also a commonly used model for studying neonatal hemolytic jaundice at home and abroad. The most prominent feature of hemolytic jaundice was the collapse of the patient's red blood cells, causing hemolysis. […] At the same time, due to the rupture of red blood cells and the release of bilirubin, liver function was damaged. The mechanism and symptoms simulated by APH were similar to those of hemolytic jaundice. From 60 healthy SD rats with required body weight, 10 rats were randomly selected as the normal control group, and the remaining 50 rats were intraperitoneally injected with acetylphenylhydrazine (APH) at a dose of 150 mg/kg for 3 consecutive days, to construct the animal model of hemolytic jaundice induced by oxidation of red blood cells. […] 50 rats successfully modeled were randomly divided into 5 groups, 10 rats for each group, and the groups were respectively named as: model control group (n=10), CGA group (n=10), bifidobacteria+HMO group (n=10), CGA+bifidobacteria+HMO low-dose group (n=10), CGA+bifidobacteria+HMO high-dose group (n=10), together with the normal control group (n=10), a total of 6 experimental groups, including 60 rats. In the experiment, rats in each group were administered by gavage, while the blank group and the model group were given the solvent physiological saline by gavage. The administration time is 6 days. The composition and dosage of therapeutic drugs for each group were as follows: • (1) CGA group: CGA 60 mg/kg/day, administered by gavage with physiological saline as solvent. • (2) bifidobacteria+HMO group: Bifidobacterium brevis M16-V (6 mg/kg/day), lacto-N-neotetraose (3 mg/kg/day), and 6′-sialyllactose (3 mg/kg/day). The mixture of the above components was prepared according to the weight ratio, and using physiological saline as the solvent, the solution of the mixture was administered by gavage. • (3) CGA+bifidobacteria+HMO low-dose group: CGA (60 mg/kg/day), Bifidobacterium brevis M16-V (6 mg/kg/day), lacto-N-neotetraose (3 mg/kg/day), and 6′-sialyllactose (3 mg/kg/day). […] In this example, the activity of ALT (alanine aminotransferase) and AST (aspartate aminotransferase) was determined by rate method, while α-GST was detected using α-GST (α-glutathione s-transferase) detection kit; • (2) The blood sample stored in step (1) was taken out, and then bilirubin and direct bilirubin were detected by using the total bilirubin detection kit and the direct bilirubin detection kit.

The test system is the same in assay [2]. Nature of the assay: Determination of total, direct and indirect bilirubin in rats with APH-induced hemolytic jaundice. Here is the method: as §1
Assay [3] shares this test system. Nature of the assay: Detection of glutathione (GSH) by ELISA in rats with APH-induced hemolytic jaundice. The following applies: after 6 days of treatment, in words, compared with the model control group (data not shown). As for the experimental part: Clean adult male SD rats, weighing 200 g-250 g. The following experiment was carried out mainly by referring to the method described in CN104739818A. In short, in the example, acetylphenylhydrazine (APH) was used as a modeling drug to construct a rat model of hemolytic jaundice, which was also a commonly used model for studying neonatal hemolytic jaundice at home and abroad. The most prominent feature of hemolytic jaundice was the collapse of the patient's red blood cells, causing hemolysis. […] At the same time, due to the rupture of red blood cells and the release of bilirubin, liver function was damaged. The mechanism and symptoms simulated by APH were similar to those of hemolytic jaundice. From 60 healthy SD rats with required body weight, 10 rats were randomly selected as the normal control group, and the remaining 50 rats were intraperitoneally injected with acetylphenylhydrazine (APH) at a dose of 150 mg/kg for 3 consecutive days, to construct the animal model of hemolytic jaundice induced by oxidation of red blood cells. […] In order to explore the mechanism for the possible therapeutic effect of CGA, the GSH level of rats in each group was detected in this example. […]
(In general: ELISA stands for enzyme-linked immunosorbent assay.)

[4] abbreviates: after 6 days of treatment, in words, compared with the model control group.
[5] abbreviates: serum, after 6 days of gavage, APH model rats, mean ± SD, n=10.
[6] abbreviates: after 6 days of gavage, APH model rats, mean ± SD, n=10.

Take `O=C(/C=C/c1ccc(O)c(O)c1)O[C@@H]1C[C@](O)(C(=O)O)C[C@@H](O)[C@H]1O` [CGA, 3-O-caffeoylquinic acid]: the “levels of α-GST, ALT, and AST in serum” value in assay [1] (setting [4]) is reported as “significantly decreased”. Also, in assay [1] (setting [5]), the ALT is 26.5 ± 3.8 U/L, the AST was 29.8 ± 5.1 U/L and the α-GST turned out to be 20.9 ± 4.2. In assay [2] (setting [6]), this compound yielded a Direct bilirubin of 1.86 ± 0.85 µmol/L, an Indirect bilirubin of 1.51 µmol/L and a Total bilirubin of 3.37 ± 0.93 µmol/L. Also, in assay [2] (setting [4]), the “levels of direct bilirubin, indirect bilirubin and total bilirubin” value is listed as “significantly decreased”. Further, in assay [3], the “content of GSH in serum” value is listed as “increased significantly”.
